Where a SMILES comes first, the peptide text is derived from it. [ ]: non-standard residue; d: D form. The star is where a group is joined. NHCH2CH2OH = OCCN*; For = O=C*
What was measured:
[1] = test system: Streptococcus pyogenes SSI-9; test: Antibacterial activity assay of bead-derived peptides (three concentrations); format: cell-based; parameters: key: +++: inhibition by the 640-fold diluted peptide solution; ++: inhibition by the 160-fold diluted solution; +: inhibition by the 40-fold diluted solution; -: no inhibition; conditions: S. pyogenes, bead-derived peptide solution, three concentrations
In short: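 Library peptide stock applied undiluted, 4-fold and 16-fold diluted in DMSO to S. pyogenes SSI-9 (2 × 10^5 CFU) in cation-adjusted Mueller Hinton broth with 5% laked horse blood. After 18 h at 37 °C, growth judged by visible cell precipitation.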

[2] = test system: P388 mouse leukemia cells; conditions: 92 h
In short: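 P388 cells at 1 × 10^4 cells/mL (final) were exposed to library peptides (stocks diluted 250-fold in RPMI1640/10% FBS) for 92 h at 37 °C, 5% CO2. Viable cells were counted by WST-1/1-methoxy PMS (4 h), absorbance 415 nm, and expressed as cell viability (%).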

[3] = H+/Na+ transport assay of bead-derived peptides (one-point); format: biochemical; parameters: key: relative activity; mean of two control wells = 1.00; conditions: bead-derived peptide solution, EYPC/EYPG LUVs;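 also: relative to parent gramicidin A activity set to 1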
In short: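 Pyranine (1.0 mM)-loaded LUVs containing egg yolk phosphatidylglycerol were prepared by film hydration, sonication and extrusion, then mixed with diluted bead-derived peptide in 96-well format and vortexed 30 min at room temperature. Fluorescence was normalized between untreated LUVs (0%) and Triton X-100 lysis (100%).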

| SMILES | antibacterial activity [1] | cell viability/% [2] | H+/Na+ transport activity normalized against the value of 1 (1.00) [3] |
| --- | --- | --- | --- |
| CC(C)C[C@@H](NC(=O)[C@H](C)NC(=O)[C@H](NC(=O)[C@H](C)NC(=O)CNC(=O)[C@@H](NC=O)C(C)C)C(C)C)C(=O)N[C@H](C(=O)N[C@@H](C(=O)N[C@@H](Cc1c[nH]c2ccccc12)C(=O)N[C@@H](C(=O)N[C@@H](Cc1c[nH]c2ccccc12)C(=O)N[C@H](CC(C)C)C(=O)N[C@@H](Cc1c[nH]c2ccccc12)C(=O)N[C@@H](C(=O)N[C@@H](Cc1c[nH]c2ccccc12)C(=O)NCCO)C(C)C)C(C)C)[C@H](C)O)C(C)C [compound 9633] (For-VGA[dV]A[dL]V[dT]W[dV]W[dL]W[dV]W-NHCH2CH2OH) | - | 100.0% | 1.06 |
| CC(C)C[C@@H](NC(=O)[C@H](C)NC(=O)CNC(=O)[C@@H](NC=O)C(C)C)C(=O)N[C@@H](C)C(=O)N[C@@H](C(=O)N[C@H](C(=O)N[C@H](CC(C)C)C(=O)N[C@@H](Cc1c[nH]c2ccccc12)C(=O)N[C@H](CC(C)C)C(=O)N[C@@H](Cc1c[nH]c2ccccc12)C(=O)N[C@@H](C(=O)N[C@@H](Cc1c[nH]c2ccccc12)C(=O)N[C@H](CC(C)C)C(=O)N[C@@H](Cc1c[nH]c2ccccc12)C(=O)NCCO)C(C)C)C(C)C)[C@H](C)O [compound 9676] (For-VGA[dL]A[dT]V[dL]W[dL]W[dV]W[dL]W-NHCH2CH2OH) | - | 100.0% | 1.05 |
| CNC(=O)C[C@@H](NC(=O)[C@H](Cc1c[nH]c2ccccc12)NC(=O)[C@H](NC(=O)[C@H](Cc1c[nH]c2ccccc12)NC(=O)[C@@H](CC(C)C)NC(=O)[C@H](Cc1c[nH]c2ccccc12)NC(=O)[C@H](NC(=O)[C@@H](NC(=O)[C@@H](CC(C)C)NC(=O)[C@H](C)NC(=O)[C@H](NC(=O)[C@H](C)NC(=O)CNC(=O)[C@@H](NC=O)C(C)C)C(C)C)C(C)C)C(C)C)C(C)C)C(=O)N[C@@H](Cc1c[nH]c2ccccc12)C(=O)NCCO [compound 9727] (For-VGA[dV]A[dL]V[dV]W[dL]W[dV]W[dD](NHMe)W-NHCH2CH2OH) | - | 100.0% | 1.10 |
| CC(C)C[C@@H](NC(=O)[C@H](C)NC(=O)CNC(=O)[C@@H](NC=O)C(C)C)C(=O)N[C@@H](C)C(=O)N[C@H](CC(C)C)C(=O)N[C@H](C(=O)N[C@@H](C(=O)N[C@@H](Cc1c[nH]c2ccccc12)C(=O)N[C@@H](C(=O)N[C@@H](Cc1c[nH]c2ccccc12)C(=O)N[C@@H](C(=O)N[C@@H](Cc1c[nH]c2ccccc12)C(=O)N[C@@H](C(=O)N[C@@H](Cc1c[nH]c2ccccc12)C(=O)NCCO)[C@H](C)O)C(C)C)C(C)C)C(C)C)C(C)C [compound 9735] (For-VGA[dL]A[dL]V[dV]W[dV]W[dV]W[dT]W-NHCH2CH2OH) | - | 100.0% | 1.18 |
| CC(C)C[C@@H](NC(=O)[C@H](C)NC(=O)[C@H](NC(=O)[C@H](C)NC(=O)CNC(=O)[C@@H](NC=O)C(C)C)C(C)C)C(=O)N[C@H](C(=O)N[C@@H](C(=O)N[C@@H](Cc1c[nH]c2ccccc12)C(=O)N[C@@H](C(=O)N[C@@H](Cc1c[nH]c2ccccc12)C(=O)N[C@@H](C(=O)N[C@@H](Cc1c[nH]c2ccccc12)C(=O)N[C@H](CC(C)C)C(=O)N[C@@H](Cc1c[nH]c2ccccc12)C(=O)NCCO)C(C)C)C(C)C)[C@H](C)O)C(C)C [compound 9738] (For-VGA[dV]A[dL]V[dT]W[dV]W[dV]W[dL]W-NHCH2CH2OH) | - | 100.0% | 1.21 |
| CC(C)C[C@@H](NC(=O)[C@H](C)NC(=O)[C@H](NC(=O)[C@H](C)NC(=O)CNC(=O)[C@@H](NC=O)C(C)C)C(C)C)C(=O)N[C@H](C(=O)N[C@H](CC(C)C)C(=O)N[C@@H](Cc1c[nH]c2ccccc12)C(=O)N[C@@H](C(=O)N[C@@H](Cc1c[nH]c2ccccc12)C(=O)N[C@H](CC(C)C)C(=O)N[C@@H](Cc1c[nH]c2ccccc12)C(=O)N[C@@H](C(=O)N[C@@H](Cc1c[nH]c2ccccc12)C(=O)NCCO)C(C)C)C(C)C)C(C)C [compound 9742] (For-VGA[dV]A[dL]V[dL]W[dV]W[dL]W[dV]W-NHCH2CH2OH) | + | 0.0% | 1.21 |
| CC(C)C[C@@H](NC(=O)[C@@H](NC(=O)[C@H](NC(=O)[C@H](C)NC(=O)[C@H](NC(=O)[C@H](C)NC(=O)CNC(=O)[C@@H](NC=O)C(C)C)[C@H](C)O)C(C)C)C(C)C)C(=O)N[C@@H](Cc1c[nH]c2ccccc12)C(=O)N[C@@H](C(=O)N[C@@H](Cc1c[nH]c2ccccc12)C(=O)N[C@@H](C(=O)N[C@@H](Cc1c[nH]c2ccccc12)C(=O)N[C@@H](C(=O)N[C@@H](Cc1c[nH]c2ccccc12)C(=O)NCCO)C(C)C)C(C)C)C(C)C [compound 9799] (For-VGA[dT]A[dV]V[dL]W[dV]W[dV]W[dV]W-NHCH2CH2OH) | - | 100.0% | 1.26 |
| CC(C)C[C@@H](NC(=O)[C@H](C)NC(=O)CNC(=O)[C@@H](NC=O)C(C)C)C(=O)N[C@@H](C)C(=O)N[C@@H](C(=O)N[C@H](C(=O)N[C@@H](C(=O)N[C@@H](Cc1c[nH]c2ccccc12)C(=O)N[C@@H](C(=O)N[C@@H](Cc1c[nH]c2ccccc12)C(=O)N[C@H](CC(C)C)C(=O)N[C@@H](Cc1c[nH]c2ccccc12)C(=O)N[C@H](CC(C)C)C(=O)N[C@@H](Cc1c[nH]c2ccccc12)C(=O)NCCO)C(C)C)[C@H](C)O)C(C)C)C(C)C [compound 9832] (For-VGA[dL]A[dV]V[dT]W[dV]W[dL]W[dL]W-NHCH2CH2OH) | - | 100.0% | 1.26 |
| CC(C)C[C@@H](NC(=O)[C@H](C)NC(=O)[C@H](NC(=O)[C@H](C)NC(=O)CNC(=O)[C@@H](NC=O)C(C)C)C(C)C)C(=O)N[C@H](C(=O)N[C@@H](C(=O)N[C@@H](Cc1c[nH]c2ccccc12)C(=O)N[C@H](CC(C)C)C(=O)N[C@@H](Cc1c[nH]c2ccccc12)C(=O)N[C@H](CC(C)C)C(=O)N[C@@H](Cc1c[nH]c2ccccc12)C(=O)N[C@H](CC(C)C)C(=O)N[C@@H](Cc1c[nH]c2ccccc12)C(=O)NCCO)C(C)C)C(C)C [compound 9897] (For-VGA[dV]A[dL]V[dV]W[dL]W[dL]W[dL]W-NHCH2CH2OH) | + | 8.1% | 1.04 |
| CC(C)C[C@@H](NC(=O)[C@H](Cc1c[nH]c2ccccc12)NC(=O)[C@H](NC(=O)[C@@H](NC(=O)[C@H](NC(=O)[C@H](C)NC(=O)[C@H](NC(=O)[C@H](C)NC(=O)CNC(=O)[C@@H](NC=O)C(C)C)C(C)C)C(C)C)C(C)C)[C@H](C)O)C(=O)N[C@@H](Cc1c[nH]c2ccccc12)C(=O)N[C@@H](C(=O)N[C@@H](Cc1c[nH]c2ccccc12)C(=O)N[C@@H](C(=O)N[C@@H](Cc1c[nH]c2ccccc12)C(=O)NCCO)C(C)C)C(C)C [compound 9910] (For-VGA[dV]A[dV]V[dT]W[dL]W[dV]W[dV]W-NHCH2CH2OH) | - | 100.0% | 1.07 |
| CC(C)C[C@@H](NC(=O)[C@H](C)NC(=O)CNC(=O)[C@@H](NC=O)C(C)C)C(=O)N[C@@H](C)C(=O)N[C@@H](C(=O)N[C@H](C(=O)N[C@@H](C(=O)N[C@@H](Cc1c[nH]c2ccccc12)C(=O)N[C@@H](C(=O)N[C@@H](Cc1c[nH]c2ccccc12)C(=O)N[C@@H](C(=O)N[C@@H](Cc1c[nH]c2ccccc12)C(=O)N[C@@H](C(=O)N[C@@H](Cc1c[nH]c2ccccc12)C(=O)NCCO)C(C)C)C(C)C)C(C)C)C(C)C)C(C)C)C(C)C [compound 9992] (For-VGA[dL]A[dV]V[dV]W[dV]W[dV]W[dV]W-NHCH2CH2OH) | + | 100.0% | 1.23 |
| CNC(=O)C[C@@H](NC(=O)[C@H](Cc1c[nH]c2ccccc12)NC(=O)[C@H](NC(=O)[C@H](Cc1c[nH]c2ccccc12)NC(=O)[C@@H](CC(C)C)NC(=O)[C@H](Cc1c[nH]c2ccccc12)NC(=O)[C@@H](CC(C)C)NC(=O)[C@@H](NC(=O)[C@@H](CC(C)C)NC(=O)[C@H](C)NC(=O)[C@@H](CC(C)C)NC(=O)[C@H](C)NC(=O)CNC(=O)[C@@H](NC=O)C(C)C)C(C)C)C(C)C)C(=O)N[C@@H](Cc1c[nH]c2ccccc12)C(=O)NCCO [compound 10008] (For-VGA[dL]A[dL]V[dL]W[dL]W[dV]W[dD](NHMe)W-NHCH2CH2OH) | - | 100.0% | 1.15 |
| CNC(=O)C[C@@H](NC(=O)[C@H](Cc1c[nH]c2ccccc12)NC(=O)[C@@H](CC(C)C)NC(=O)[C@H](Cc1c[nH]c2ccccc12)NC(=O)[C@H](NC(=O)[C@H](Cc1c[nH]c2ccccc12)NC(=O)[C@@H](CC(C)C)NC(=O)[C@@H](NC(=O)[C@H](NC(=O)[C@H](C)NC(=O)[C@@H](CC(C)C)NC(=O)[C@H](C)NC(=O)CNC(=O)[C@@H](NC=O)C(C)C)C(C)C)C(C)C)C(C)C)C(=O)N[C@@H](Cc1c[nH]c2ccccc12)C(=O)NCCO [compound 10043] (For-VGA[dL]A[dV]V[dL]W[dV]W[dL]W[dD](NHMe)W-NHCH2CH2OH) | - | 56.6% | 1.09 |

— publication PMC7531004, “Discovery of gramicidin A analogues with altered activities by multidimensional screening of a one-bead-one-compound library” (Nature Communications, 2020)
